Reference: the supplement of paper PMC10307832

Legend:
Assay in all cases: relative viability (nuclei count vs DMSO), 5 days (fraction); higher = more cells survive
[1] = compound: C1CC(C1)(C(=O)O)C(=O)O.[NH2-].[NH2-].[Pt+2] [Carboplatin] + CC(=O)c1c(C)c2cnc(Nc3ccc(N4CCNCC4)cn3)nc2n(C2CCCC2)c1=O [Palbociclib] (partner 0.5 µM)
Outline: (§1)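 Relative viability equals treated-well nuclei counts divided by vehicle-well nuclei counts. Counts came from 4× images of lung cancer cell lines grown in 1536-well plates for 5 days after pin-tool dosing on the day after seeding. Dosing used one drug alone or a fixed anchor-drug dose plus five library-drug doses (not always all listed) in √10 steps, and values are medians of duplicate plates.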

[2] = compound: C1CC(C1)(C(=O)O)C(=O)O.[NH2-].[NH2-].[Pt+2] [Carboplatin] + Nc1ncn([C@H]2C[C@H](O)[C@@H](CO)O2)c(=O)n1 [Decitabine] (partner 2 µM)
Outline: as §1

[3] = compound: C1CC(C1)(C(=O)O)C(=O)O.[NH2-].[NH2-].[Pt+2] [Carboplatin] + CS(=O)(=O)CCNCc1ccc(-c2ccc3ncnc(Nc4ccc(OCc5cccc(F)c5)c(Cl)c4)c3c2)o1 [Lapatinib] (partner 2 µM)
Outline: as §1

[4] = compound: NS(=O)(=O)OC[C@@H]1C[C@@H](n2ccc3c(N[C@H]4CCc5ccccc54)ncnc32)C[C@@H]1O [MLN4924] + COc1cccc2cc(-c3nc([C@H]4CC[C@H](C(=O)O)CC4)n4ncnc(N)c34)[nH]c12 [OSI-027] (partner 0.5 µM)
Outline: as §1

## UMC-11
[1]; first compound 0.08 µM
  relative viability: 0.314
[1]; first compound 0.253 µM
  relative viability: 0.348
[1]; first compound 0.8 µM
  relative viability: 0.275
[1]; first compound 2.53 µM
  relative viability: 0.301
[1]; first compound 8 µM
  relative viability: 0.339
[2]; first compound 0.08 µM
  relative viability: 0.596
[2]; first compound 0.253 µM
  relative viability: 0.626
[2]; first compound 0.8 µM
  relative viability: 0.482
[2]; first compound 2.53 µM
  relative viability: 0.576
[2]; first compound 8 µM
  relative viability: 0.418
[3]; first compound 0.08 µM
  relative viability: 1.01
[3]; first compound 0.253 µM
  relative viability: 0.941
[3]; first compound 0.8 µM
  relative viability: 1.07
[3]; first compound 2.53 µM
  relative viability: 1.04
[3]; first compound 8 µM
  relative viability: 0.847
[4]; first compound 0.04 µM
  relative viability: 0.429
[4]; first compound 0.1265 µM
  relative viability: 0.315
[4]; first compound 0.4 µM
  relative viability: 0.271
[4]; first compound 1.265 µM
  relative viability: 0.168
[4]; first compound 4 µM
  relative viability: 0.179
